Measurements as given in US9242987B2, “Heterocyclyl pyrazolopyrimidine analogues as JAK inhibitors” (Cellzome Limited, priority 2009, dated 2016).
Where a name gives a salt, the structure may show the parent alone.

Tests used:
[1] = target: T1, JAK2 (Homo sapiens, UniProt O60674); experiment: Kinobeads assay, JAK2; assay type: binding; details: mixed Molt4/Ramos cell lysate, dot blot detection
T1 construct: endogenous in cells; host or cells: Mixed Molt4/Ramos lysate (1:2)
Summary of the method: (§1)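 Lysate from Molt4 and Ramos cells combined 1:2 at 10 mg/mL total protein met test compound and an aminopyrido-pyrimidine affinity matrix for 3 h in the cold. Captured JAK2 and JAK3, after elution, were measured by specific-antibody dot blot on an infrared system; dose-response curves yielded IC50.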

[2] = target: T2, JAK3 (Homo sapiens, UniProt P52333); experiment: Kinobeads assay, JAK3; assay type: binding; details: mixed Molt4/Ramos cell lysate, dot blot detection
T2 construct: endogenous in cells; host or cells: Mixed Molt4/Ramos lysate (1:2)
T2 sequence (P52333 1-1124): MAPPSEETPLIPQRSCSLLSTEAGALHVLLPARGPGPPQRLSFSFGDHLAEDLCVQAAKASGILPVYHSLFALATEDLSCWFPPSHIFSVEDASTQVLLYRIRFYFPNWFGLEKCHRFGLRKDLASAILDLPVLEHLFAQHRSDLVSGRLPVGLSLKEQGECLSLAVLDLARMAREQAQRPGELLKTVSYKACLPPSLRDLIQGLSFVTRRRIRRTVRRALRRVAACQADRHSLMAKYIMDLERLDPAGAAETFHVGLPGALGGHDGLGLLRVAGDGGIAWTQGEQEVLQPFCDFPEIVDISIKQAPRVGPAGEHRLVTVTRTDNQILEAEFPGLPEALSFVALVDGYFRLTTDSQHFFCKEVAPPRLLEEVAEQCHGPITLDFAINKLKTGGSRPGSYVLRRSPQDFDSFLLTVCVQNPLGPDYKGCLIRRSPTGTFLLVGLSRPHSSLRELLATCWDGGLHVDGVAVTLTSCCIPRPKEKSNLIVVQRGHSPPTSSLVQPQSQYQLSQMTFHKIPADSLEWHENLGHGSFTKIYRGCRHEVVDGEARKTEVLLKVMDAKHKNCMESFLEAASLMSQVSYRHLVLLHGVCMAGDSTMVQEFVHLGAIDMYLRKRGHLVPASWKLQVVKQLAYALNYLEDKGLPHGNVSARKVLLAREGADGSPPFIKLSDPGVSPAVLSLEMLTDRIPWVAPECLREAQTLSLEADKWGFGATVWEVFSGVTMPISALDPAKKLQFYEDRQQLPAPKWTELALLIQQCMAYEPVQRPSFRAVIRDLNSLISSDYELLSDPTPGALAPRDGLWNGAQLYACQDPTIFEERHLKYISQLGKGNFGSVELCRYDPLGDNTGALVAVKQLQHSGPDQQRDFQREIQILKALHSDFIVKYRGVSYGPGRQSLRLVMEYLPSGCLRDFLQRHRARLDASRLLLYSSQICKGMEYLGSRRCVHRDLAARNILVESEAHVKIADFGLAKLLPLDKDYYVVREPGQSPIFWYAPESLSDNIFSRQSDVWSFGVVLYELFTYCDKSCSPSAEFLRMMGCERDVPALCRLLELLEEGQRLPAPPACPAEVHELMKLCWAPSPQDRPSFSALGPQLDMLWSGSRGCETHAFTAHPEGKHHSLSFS
Summary of the method: as §1

T1 sequence (O60674 whole entry): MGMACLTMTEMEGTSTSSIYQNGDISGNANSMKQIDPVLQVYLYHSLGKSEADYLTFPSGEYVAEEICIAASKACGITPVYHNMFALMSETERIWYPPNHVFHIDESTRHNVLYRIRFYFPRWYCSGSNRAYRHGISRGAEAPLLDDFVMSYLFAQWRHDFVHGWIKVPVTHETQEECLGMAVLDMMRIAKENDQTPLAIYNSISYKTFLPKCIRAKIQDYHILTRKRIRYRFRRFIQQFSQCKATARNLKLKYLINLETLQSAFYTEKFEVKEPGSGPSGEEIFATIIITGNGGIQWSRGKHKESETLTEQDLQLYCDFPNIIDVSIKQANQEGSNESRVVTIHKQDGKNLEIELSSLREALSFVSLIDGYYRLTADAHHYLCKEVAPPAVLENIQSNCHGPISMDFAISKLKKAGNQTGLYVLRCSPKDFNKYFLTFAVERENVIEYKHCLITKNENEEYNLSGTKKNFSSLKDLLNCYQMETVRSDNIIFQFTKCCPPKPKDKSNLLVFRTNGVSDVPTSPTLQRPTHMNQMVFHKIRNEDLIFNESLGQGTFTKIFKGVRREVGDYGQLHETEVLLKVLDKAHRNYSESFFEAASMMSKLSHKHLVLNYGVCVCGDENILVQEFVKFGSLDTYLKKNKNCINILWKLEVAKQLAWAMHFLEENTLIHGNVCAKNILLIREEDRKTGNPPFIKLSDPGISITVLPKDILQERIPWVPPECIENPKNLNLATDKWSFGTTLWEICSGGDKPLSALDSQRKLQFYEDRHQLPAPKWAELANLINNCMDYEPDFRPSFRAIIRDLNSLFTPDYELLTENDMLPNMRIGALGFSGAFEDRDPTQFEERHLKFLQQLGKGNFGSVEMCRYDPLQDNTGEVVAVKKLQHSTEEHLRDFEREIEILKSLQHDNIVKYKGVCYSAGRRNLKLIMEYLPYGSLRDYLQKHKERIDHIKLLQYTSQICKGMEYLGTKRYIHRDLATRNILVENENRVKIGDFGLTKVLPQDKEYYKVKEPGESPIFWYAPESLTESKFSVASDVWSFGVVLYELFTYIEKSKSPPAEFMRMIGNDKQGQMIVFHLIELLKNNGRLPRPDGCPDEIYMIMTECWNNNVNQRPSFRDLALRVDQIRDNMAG

SMILES | IC50 [1] [nM] | IC50 [2] [nM]
COc1cc(F)cc(Cn2ncc3cnc(Nc4cnn(C)c4)nc32)c1 [Example 104, 1-(3-Fluoro-5-methoxybenzyl)-N-(1-methyl-1H-pyrazol-4-yl)-1H-pyrazolo[3,4-d]pyrimidin-6-amine] | 100 to 1000 | < 100
COc1nn(C)cc1Nc1ncc2cnn(Cc3ccccc3)c2n1 [Example 105, 1-Benzyl-N-(3-methoxy-1-methyl-1H-pyrazol-4-yl)-1H-pyrazolo[3,4-d]pyrimidin-6-amine] | ≥ 10000 | < 100
COc1nn(CCO)cc1Nc1ncc2cnn(Cc3ccccc3)c2n1 [Example 106, 2-(4-((1-Benzyl-1H-pyrazolo[3,4-d]pyrimidin-6-yl)amino)-3-methoxy-1H-pyrazol-1-yl)ethanol] | 1000 to 10000 | < 100
Cn1cc(Nc2ncc3cnn(Cc4cccc(C#N)c4F)c3n2)cn1 [Example 107, 2-Fluoro-3-((6-((1-methyl-1H-pyrazol-4-yl)amino)-1H-pyrazolo[3,4-d]pyrimidin-1-yl)methyl)benzonitrile] | 1000 to 10000 | < 100
Cn1cc(Nc2ncc3cnn(Cc4cccc(F)c4C#N)c3n2)cn1 [Example 108, 2-Fluoro-6-((6-((1-methyl-1H-pyrazol-4-yl)amino)-1H-pyrazolo[3,4-d]pyrimidin-1-yl)methyl)benzonitrile] | 1000 to 10000 | 100 to 1000
Cc1c(Nc2ncc3cnn(Cc4ccccc4)c3n2)cnn1C [Example 109, 1-Benzyl-N-(1,5-dimethyl-1H-pyrazol-4-yl)-1H-pyrazolo[3,4-d]pyrimidin-6-amine] | ≥ 10000 | 100 to 1000
Cc1nn(C)cc1Nc1ncc2cnn(Cc3ccccc3)c2n1 [Example 110, 1-Benzyl-N-(1,3-dimethyl-1H-pyrazol-4-yl)-1H-pyrazolo[3,4-d]pyrimidin-6-amine] | ≥ 10000 | 100 to 1000
Cn1cc(Nc2ncc3cnn(Cc4ccccc4C4CC4)c3n2)cn1 [Example 111, 1-(2-Cyclopropylbenzyl)-N-(1-methyl-1H-pyrazol-4-yl)-1H-pyrazolo[3,4-d]pyrimidin-6-amine] | 1000 to 10000 | < 100
CC(C)(O)Cn1cc(Nc2ncc3cnn(Cc4ccccc4F)c3n2)cn1 [Example 112, 1-(4-((1-(2-Fluorobenzyl)-1H-pyrazolo[3,4-d]pyrimidin-6-yl)amino)-1H-pyrazol-1-yl)-2-methylpropan-2-ol] | 1000 to 10000 | < 100
Cc1nn(CCO)cc1Nc1ncc2cnn(Cc3ccccc3)c2n1 [Example 113, 2-(4-((1-Benzyl-1H-pyrazolo[3,4-d]pyrimidin-6-yl)amino)-3-methyl-1H-pyrazol-1-yl)ethanol] | 1000 to 10000 | < 100
Cn1cc(Nc2ncc3cnn(Cc4ccccc4OCc4ccccc4)c3n2)cn1 [Example 114, 1-(2-(Benzyloxy)benzyl)-N-(1-methyl-1H-pyrazol-4-yl)-1H-pyrazolo[3,4-d]pyrimidin-6-amine] | ≥ 10000 | 100 to 1000
Cc1c(F)cccc1Cn1ncc2cnc(Nc3cnn(C)c3)nc21 [Example 115, 1-(3-Fluoro-2-methylbenzyl)-N-(1-methyl-1H-pyrazol-4-yl)-1H-pyrazolo[3,4-d]pyrimidin-6-amine] | 1000 to 10000 | < 100
Cc1ccc(F)cc1Cn1ncc2cnc(Nc3cnn(C)c3)nc21 [Example 116] | 100 to 1000 | < 100
Cc1cccc(F)c1Cn1ncc2cnc(Nc3cnn(C)c3)nc21 [Example 117, 1-(2-Fluoro-6-methylbenzyl)-N-(1-methyl-1H-pyrazol-4-yl)-1H-pyrazolo[3,4-d]pyrimidin-6-amine] | 1000 to 10000 | < 100
FC(F)Cn1cc(Nc2ncc3cnn(Cc4ccccc4)c3n2)cn1 [Example 118, 1-Benzyl-N-(1-(2,2-difluoroethyl)-1H-pyrazol-4-yl)-1H-pyrazolo[3,4-d]pyrimidin-6-amine] | 1000 to 10000 | < 100
COc1nn(CC(F)F)cc1Nc1ncc2cnn(Cc3ccccc3)c2n1 [Example 119, 1-Benzyl-N-(1-(2,2-difluoroethyl)-3-methoxy-1H-pyrazol-4-yl)-1H-pyrazolo[3,4-d]pyrimidin-6-amine] | ≥ 10000 | 100 to 1000
Cc1nn(CC(F)F)cc1Nc1ncc2cnn(Cc3ccccc3)c2n1 [Example 120, 1-Benzyl-N-(1-(2,2-difluoroethyl)-3-methyl-1H-pyrazol-4-yl)-1H-pyrazolo[3,4-d]pyrimidin-6-amine] | ≥ 10000 | 100 to 1000
NS(=O)(=O)c1ccc(-n2ncc3cnc(Nc4cnn(CCO)c4)nc32)cc1 [Example 121, 4-(6-((1-(2-Hydroxyethyl)-1H-pyrazol-4-yl)amino)-1H-pyrazolo[3,4-d]pyrimidin-1-yl)benzenesulfonamide] | 100 to 1000 | < 100

The next lines start with the values.

IC50 [1] [nM] | IC50 [2] [nM] | SMILES
1000 to 10000 | 100 to 1000 | Cn1cc(Nc2ncc3cnn(-c4cccc(S(N)(=O)=O)c4)c3n2)cn1 [Example 122, 3-(6-((1-Methyl-1H-pyrazol-4-yl)amino)-1H-pyrazolo[3,4-d]pyrimidin-1-yl)benzenesulfonamide]
100 to 1000 | < 100 | CCN(CC)CCn1cc(Nc2ncc3cnn(Cc4ccccc4F)c3n2)cn1 [Example 123, N-(1-(2-(Diethylamino)ethyl)-1H-pyrazol-4-yl)-1-(2-fluorobenzyl)-1H-pyrazolo[3,4-d]pyrimidin-6-amine]
100 to 1000 | < 100 | Fc1ccccc1Cn1ncc2cnc(Nc3cnn(CCN4CCOCC4)c3)nc21 [Example 124, 1-(2-Fluorobenzyl)-N-(1-(2-morpholinoethyl)-1H-pyrazol-4-yl)-1H-pyrazolo[3,4-d]pyrimidin-6-amine]
100 to 1000 | < 100 | CN(C)CCCn1cc(Nc2ncc3cnn(Cc4ccccc4F)c3n2)cn1 [Example 125, N-(1-(3-(Dimethylamino)propyl)-1H-pyrazol-4-yl)-1-(2-fluorobenzyl)-1H-pyrazolo[3,4-d]pyrimidin-6-amine]
1000 to 10000 | < 100 | CC(C)S(=O)(=O)Nc1ccccc1Cn1ncc2cnc(Nc3cnn(C)c3)nc21 [Example 126, N-(2-((6-((1-Methyl-1H-pyrazol-4-yl)amino)-1H-pyrazolo[3,4-d]pyrimidin-1-yl)methyl)phenyl)propane-2-sulfonamide]
1000 to 10000 | 100 to 1000 | NS(=O)(=O)c1ccc(-n2ncc3cnc(Nc4cnn(CC(F)F)c4)nc32)cc1 [Example 127, 4-(6-((1-(2,2-Difluoroethyl)-1H-pyrazol-4-yl)amino)-1H-pyrazolo[3,4-d]pyrimidin-1-yl)benzenesulfonamide]
1000 to 10000 | < 100 | Fc1ccccc1Cn1ncc2cnc(Nc3cnn(CC(F)F)c3)nc21 [Example 128, N-(1-(2,2-Difluoroethyl)-1H-pyrazol-4-yl)-1-(2-fluorobenzyl)-1H-pyrazolo[3,4-d]pyrimidin-6-amine]
100 to 1000 | < 100 | Fc1ccc(F)c(Cn2ncc3cnc(Nc4cnn(CC(F)F)c4)nc32)c1 [Example 129, 1-(2,5-Difluorobenzyl)-N-(1-(2,2-difluoroethyl)-1H-pyrazol-4-yl)-1H-pyrazolo[3,4-d]pyrimidin-6-amine]
100 to 1000 | < 100 | N#Cc1ccc(F)cc1Cn1ncc2cnc(Nc3cnn(CC(F)F)c3)nc21 [Example 130, 2-((6-((1-(2,2-Difluoroethyl)-1H-pyrazol-4-yl)amino)-1H-pyrazolo[3,4-d]pyrimidin-1-yl)methyl)-4-fluorobenzonitrile]
100 to 1000 | < 100 | CS(=O)(=O)Nc1ccccc1Cn1ncc2cnc(Nc3cnn(CC(F)F)c3)nc21 [Example 131, N-(2-((6-((1-(2,2-Difluoroethyl)-1H-pyrazol-4-yl)amino)-1H-pyrazolo[3,4-d]pyrimidin-1-yl)methyl)phenyl)methanesulfonamide hydrochloride]
≥ 10000 | < 100 | COCCOc1cccc(Cn2ncc3cnc(Nc4cnn(C)c4)nc32)c1 [Example 132, 1-(3-(2-Methoxyethoxy)benzyl)-N-(1-methyl-1H-pyrazol-4-yl)-1H-pyrazolo[3,4-d]pyrimidin-6-amine]
